Assay results taken from patent publication US20260207600A1, “METHODS OF TREATMENT WITH MYOSIN MODULATOR” (MYOKARDIA, INC., priority 2019, published 2026).
Read-outs that look alike come from different tables or passages of the source.

Key:
[1] = Solubility estimates at ambient temperature; type: physicochemical; details: for solubility: organic solvent or mixture, thermodynamic from solid, read-out: solubility estimate
Description: Solubilities were calculated based on the total solvent used to give a solution; actual solubilities may be greater because of the volume of solvent portions utilized or a slow rate of dissolution. […] If dissolution occurred at the first aliquot, the value was reported as “>”.
Solubility estimates at ambient temperature were performed in 25 solvents and solvent systems using Form A (Lot 2-4) (Table 13.3).

[2] = test system: Yucatan mini-pigs with a heterozygous MYH7 R403Q mutation; experiment: Chronic MYK-581 in mini-pig genetic model of non-obstructed HCM (cMR imaging, invasive hemodynamics, dobutamine challenge); type: in vivo
Description: The mini-pigs were treated for at least 12 weeks and were evaluated as shown in Schematic 1 below. […] After ~14 weeks of treatment, all pigs underwent in vivo cMR imaging for the assessment of LV function and geometry, as well as of myocardial composition via of Late Gadolinium Enhancement (LGE) and T1 mapping techniques including extracellular volume (ECV) assessments. In addition, a subset of animals (MYK: n=6, CTRL: n=5) also underwent terminal invasive hemodynamics assessments, including cardiac output (CO, via thermodilution), load-independent systolic/diastolic function (via LV pressure-volume relationships), and β-adrenergic (β-AR) cardiac reserve (via dobutamine at 5 μg/kg/min IV).
The mini-pig model can be obtained following the method disclosed in a presentation entitled “A Minipig Genetic Model of Hypertrophic Cardiomyopathy Uncovers the Pathophysiological Mechanisms of Disease Evolution”, by E. Green et al., at University of Iowa, Carver College of Medicine.

[3] = test system: conscious Sprague-Dawley rats; experiment: Positive inotropic challenge (dobutamine, levosimendan) after supra-therapeutic mavacamten, echocardiography; type: in vivo, rat; details: healthy rats exposed to a supra-therapeutic dose of mavacamten
Description: Methods: The responsiveness of mavacamten-induced cardio-depression to positive inotropic challenges was assessed in a set of conscious Sprague-Dawley rats. In these animals, functional reserve was assessed via either dobutamine (+DOB, 10 μg/kg/min IV for 10 min, n=7) or levosimendan (+LEVO, 0.3 μmol/kg IV over […]; n=6) challenges given 3 hrs following a single-dose administration of MAVA (at 4 mg/kg, PO). Cardiac function/geometry were recorded and compared at three separate time-points/days: prior to dosing (i.e., at baseline) and at 3 hrs post-dosing both before as well as during the inotropic challenge; in order to account for the levosimendan-induced changes in loading conditions, an additional echocardiographic examination was performed following acute preload-restoration in LEVO-treated rats (+LEVO/F, 0.9% NaCl at 30 mL/kg/hr IV).
In these experiments, left-ventricular fractional shortening (FS), an index of systolic performance, as well as LV dimensions/volumes and heart rates were measured using a high-frequency transducer and parasternal long-axis transthoracic views (Vevo2100, VisualSonic). FS was defined as the end-diastole normalized change in internal dimensions/diameter of the left ventricle between end-systole (LVESd) and end-diastole (LVEDd) (i.e., FS=100·[LVEDd−LVESd]/LVEDd). LV volumes were derived assuming a Teichholz model (LVV=7·[2.4+LVid]−1·LVid3).

## CC(C)n1c(=O)cc(N[C@@H](C)c2ccccc2)[nH]c1=O [Form A, (S)-3-isopropyl-6-((1-phenylethyl)amino)-pyrimidine-2,4 (1H,3H)-dione]
[1]; methanol, THF, THF/water (90/10, vol/vol) and DMSO/water (90/10, vol/vol)
  solubility estimate: limited solubility
[1]; HFIPA and various mixtures with DMSO, NMP and DMF
  solubility: ≥ 20 mg/mL
[1]; anisole, isopropanol, MIBK, nitromethane, and toluene
  solubility: ≤ 1 mg/mL

## CC(C)n1c(=O)cc(N[C@@H](C)c2cccc(F)c2)[nH]c1=O [MYK-581, (S)-6-((1-(3-fluorophenyl)ethyl)amino)-3-isopropylpyrimidine-2,4 (1H,3H)-dione]
[2]; control 3.5±0.3
  LV stiffness: 1.3±0.2 mmHg/mL
[2]; control 23±4
  LV end-diastolic pressures: 9±1 mmHg
[2]; control 29±4
  left-atrial volumes: 16 ± 1 mL
[2]; control 32±2
  ECV: 27±1%
[2]; control 66±5
  LV mass: 51 ± 4 g
[2]; control 71±5
  time-constants of relaxation: 45 ± 3 ms
[2]; dobutamine challenge, control +26±2
  CO increase under β-AR challenge: +60±8%
[2]; dobutamine challenge, control −14±6
  β-AR stroke-volume recruitment: +15±4%
[2]; end of the study (~5 months), CTRL 40%
  mortality: 0%
[2]; ~14 weeks of treatment, cMR, control 65±2
  EF: 59±2%

## CC(CCc1ccc(O)cc1)NCCc1ccc(O)c(O)c1 (stereo not drawn) [dobutamine]
[3]
  echocardiography-derived indices of systolic function after supra-therapeutic mavacamten: successfully rescued/restored

## C[C@@H]1CC(=O)NN=C1c1ccc(NN=C(C#N)C#N)cc1 [levosimendan]
[3]
  echocardiography-derived indices of systolic function after supra-therapeutic mavacamten: successfully rescued/restored
